Results: ChEMBL document CHEMBL3400144, “Design and synthesis of novel 1,2-dithiolan-4-yl benzoate derivatives as PTP1B inhibitors” (Bioorg Med Chem Lett, 2015)

Columns and labels:
[1] = biological target: T1, Tyrosine-protein phosphatase non-receptor type 11 (Homo sapiens, UniProt Q06124); assay: Inhibition of SHP2 (unknown origin)
T1 sequence (Q06124 whole entry): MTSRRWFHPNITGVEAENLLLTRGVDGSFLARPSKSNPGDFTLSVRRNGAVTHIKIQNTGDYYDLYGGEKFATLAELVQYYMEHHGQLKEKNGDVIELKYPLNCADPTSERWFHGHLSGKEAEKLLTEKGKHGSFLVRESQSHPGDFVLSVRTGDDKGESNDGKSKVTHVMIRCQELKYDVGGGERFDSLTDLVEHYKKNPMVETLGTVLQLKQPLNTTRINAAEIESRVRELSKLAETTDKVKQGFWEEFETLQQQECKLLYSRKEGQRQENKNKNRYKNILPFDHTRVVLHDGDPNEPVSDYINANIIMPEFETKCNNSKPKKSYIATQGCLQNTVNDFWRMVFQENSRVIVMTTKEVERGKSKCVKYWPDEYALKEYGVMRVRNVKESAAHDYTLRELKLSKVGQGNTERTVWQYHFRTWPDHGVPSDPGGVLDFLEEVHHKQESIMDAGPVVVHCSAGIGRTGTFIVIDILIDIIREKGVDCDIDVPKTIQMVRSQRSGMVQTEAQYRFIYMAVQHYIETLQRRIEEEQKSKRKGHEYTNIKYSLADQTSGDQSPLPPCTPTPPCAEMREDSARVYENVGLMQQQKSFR

[2] = biological target: T2, Tyrosine-protein phosphatase non-receptor type 2 (Homo sapiens, UniProt P17706); assay: Inhibition of TCPTP (unknown origin)
T2 sequence (P17706 whole entry): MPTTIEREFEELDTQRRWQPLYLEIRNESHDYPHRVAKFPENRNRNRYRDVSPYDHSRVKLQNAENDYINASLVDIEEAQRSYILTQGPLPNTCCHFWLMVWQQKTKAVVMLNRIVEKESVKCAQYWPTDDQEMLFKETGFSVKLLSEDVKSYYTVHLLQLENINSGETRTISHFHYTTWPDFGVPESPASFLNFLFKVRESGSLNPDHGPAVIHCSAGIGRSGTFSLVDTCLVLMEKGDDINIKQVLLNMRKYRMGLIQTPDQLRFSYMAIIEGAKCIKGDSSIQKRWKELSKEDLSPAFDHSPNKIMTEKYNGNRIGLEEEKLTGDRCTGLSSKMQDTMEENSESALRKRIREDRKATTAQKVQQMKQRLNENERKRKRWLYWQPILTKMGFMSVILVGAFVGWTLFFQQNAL

[3] = biological target: T3, Tyrosine-protein phosphatase non-receptor type 1 (Homo sapiens, UniProt P18031); assay: Inhibition of PTP1B (unknown origin)
T3 sequence (P18031 whole entry): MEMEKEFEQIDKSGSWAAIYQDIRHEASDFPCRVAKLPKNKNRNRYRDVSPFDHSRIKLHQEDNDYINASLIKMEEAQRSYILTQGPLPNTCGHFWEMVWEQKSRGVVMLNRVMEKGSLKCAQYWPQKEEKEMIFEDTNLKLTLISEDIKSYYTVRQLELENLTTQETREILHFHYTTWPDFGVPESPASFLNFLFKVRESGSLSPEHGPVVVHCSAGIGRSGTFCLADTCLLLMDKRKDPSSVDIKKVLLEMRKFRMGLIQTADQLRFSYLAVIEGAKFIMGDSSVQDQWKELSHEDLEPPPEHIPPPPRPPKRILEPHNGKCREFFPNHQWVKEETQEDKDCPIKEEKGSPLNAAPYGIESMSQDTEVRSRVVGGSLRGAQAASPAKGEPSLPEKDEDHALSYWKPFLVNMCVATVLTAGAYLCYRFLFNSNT

[4] = biological target: Receptor-type tyrosine-protein phosphatase F (Homo sapiens, UniProt P10586); assay: Inhibition of LAR (unknown origin)
Receptor-type tyrosine-protein phosphatase F, sequence (P10586 whole entry): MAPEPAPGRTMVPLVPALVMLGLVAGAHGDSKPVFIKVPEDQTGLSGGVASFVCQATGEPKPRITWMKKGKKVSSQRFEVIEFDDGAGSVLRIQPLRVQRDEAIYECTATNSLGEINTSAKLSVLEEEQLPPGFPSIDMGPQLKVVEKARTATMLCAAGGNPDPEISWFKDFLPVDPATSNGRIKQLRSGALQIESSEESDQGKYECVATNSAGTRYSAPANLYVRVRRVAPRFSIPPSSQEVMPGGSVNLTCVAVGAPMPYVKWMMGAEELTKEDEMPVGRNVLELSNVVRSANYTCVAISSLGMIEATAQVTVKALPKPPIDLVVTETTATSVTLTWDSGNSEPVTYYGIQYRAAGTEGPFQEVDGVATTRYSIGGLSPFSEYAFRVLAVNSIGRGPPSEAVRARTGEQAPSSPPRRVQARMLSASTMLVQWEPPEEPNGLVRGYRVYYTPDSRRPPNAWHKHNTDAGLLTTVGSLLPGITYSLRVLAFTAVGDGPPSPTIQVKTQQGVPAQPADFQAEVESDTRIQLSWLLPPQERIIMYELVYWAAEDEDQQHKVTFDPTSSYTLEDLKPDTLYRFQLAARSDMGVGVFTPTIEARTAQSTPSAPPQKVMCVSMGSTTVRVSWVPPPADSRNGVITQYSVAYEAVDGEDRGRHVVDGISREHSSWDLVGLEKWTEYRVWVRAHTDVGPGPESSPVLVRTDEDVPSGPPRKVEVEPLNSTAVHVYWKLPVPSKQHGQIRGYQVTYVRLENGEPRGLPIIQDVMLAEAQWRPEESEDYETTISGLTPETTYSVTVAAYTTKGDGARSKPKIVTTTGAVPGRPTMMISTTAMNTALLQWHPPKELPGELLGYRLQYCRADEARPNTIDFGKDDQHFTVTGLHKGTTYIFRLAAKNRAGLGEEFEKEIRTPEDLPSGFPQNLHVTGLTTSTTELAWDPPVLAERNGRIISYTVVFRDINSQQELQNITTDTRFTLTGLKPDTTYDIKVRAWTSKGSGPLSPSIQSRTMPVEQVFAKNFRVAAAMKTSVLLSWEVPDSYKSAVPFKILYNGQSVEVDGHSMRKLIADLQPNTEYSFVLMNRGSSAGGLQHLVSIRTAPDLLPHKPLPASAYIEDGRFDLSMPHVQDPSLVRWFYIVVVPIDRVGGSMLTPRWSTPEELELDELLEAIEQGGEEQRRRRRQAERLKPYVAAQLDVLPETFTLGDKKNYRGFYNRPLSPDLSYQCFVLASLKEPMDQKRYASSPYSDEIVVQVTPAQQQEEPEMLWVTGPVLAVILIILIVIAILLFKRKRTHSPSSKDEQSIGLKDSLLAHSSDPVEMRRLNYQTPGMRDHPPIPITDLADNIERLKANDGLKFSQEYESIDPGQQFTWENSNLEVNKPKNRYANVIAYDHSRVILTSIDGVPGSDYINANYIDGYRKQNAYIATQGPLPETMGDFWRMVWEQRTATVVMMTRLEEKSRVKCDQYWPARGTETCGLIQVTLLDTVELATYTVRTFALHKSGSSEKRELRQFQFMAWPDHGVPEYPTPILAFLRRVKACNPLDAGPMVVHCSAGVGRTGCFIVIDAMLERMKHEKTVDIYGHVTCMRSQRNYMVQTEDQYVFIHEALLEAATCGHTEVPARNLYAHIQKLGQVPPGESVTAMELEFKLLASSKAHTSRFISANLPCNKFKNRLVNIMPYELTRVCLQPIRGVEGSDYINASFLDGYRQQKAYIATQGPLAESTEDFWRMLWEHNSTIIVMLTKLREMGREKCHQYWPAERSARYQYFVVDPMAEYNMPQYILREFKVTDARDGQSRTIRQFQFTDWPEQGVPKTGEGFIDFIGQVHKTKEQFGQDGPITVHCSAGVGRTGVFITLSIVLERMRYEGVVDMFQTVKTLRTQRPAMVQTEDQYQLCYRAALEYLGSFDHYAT

[5] = biological target: Tyrosine-protein phosphatase non-receptor type 6 (Homo sapiens, UniProt P29350); assay: Inhibition of SHP1 (unknown origin)
Tyrosine-protein phosphatase non-receptor type 6, sequence (P29350 whole entry): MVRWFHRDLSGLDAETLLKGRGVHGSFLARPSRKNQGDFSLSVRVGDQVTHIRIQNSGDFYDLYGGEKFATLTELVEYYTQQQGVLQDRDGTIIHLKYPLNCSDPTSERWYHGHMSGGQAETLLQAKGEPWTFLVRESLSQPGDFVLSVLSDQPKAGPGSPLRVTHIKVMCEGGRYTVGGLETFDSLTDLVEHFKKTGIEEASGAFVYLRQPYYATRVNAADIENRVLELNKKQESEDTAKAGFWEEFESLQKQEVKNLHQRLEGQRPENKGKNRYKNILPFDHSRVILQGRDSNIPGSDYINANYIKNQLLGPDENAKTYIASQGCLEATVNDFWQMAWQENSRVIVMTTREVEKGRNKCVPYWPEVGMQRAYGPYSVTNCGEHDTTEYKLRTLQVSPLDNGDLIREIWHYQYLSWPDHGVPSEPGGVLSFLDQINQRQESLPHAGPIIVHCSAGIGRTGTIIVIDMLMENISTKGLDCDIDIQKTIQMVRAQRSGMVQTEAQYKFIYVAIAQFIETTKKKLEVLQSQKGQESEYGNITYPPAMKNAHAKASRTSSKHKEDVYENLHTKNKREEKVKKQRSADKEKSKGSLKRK

[6] = organism: Homo sapiens; assay: Selectivity ratio of IC50 for TCPTP (unknown origin) to IC50 for PTP1B (unknown origin)

| IC50 ([1]; read-out: IC50) [µM] | IC50 [2] [µM] | IC50 ([3]; read-out: IC50) [µM] | IC50 [4] | IC50 ([5]; read-out: IC50) [µM] | Ratio IC50 [6] | IC50 [1] | IC50 [5] | IC50 [3] | SMILES |
| --- | --- | --- | --- | --- | --- | --- | --- | --- | --- |
| 22.3 | 12.9 | 9.7 | Not Active | 23.6 | – | – | – | – | O=C(OCCCCC#Cc1ccc(C(=O)OC2CSSC2)cc1)c1cccc([N+](=O)[O-])c1 |
| 24.6 | 9.46 | 10.1 | Not Active | 24.9 | – | – | – | – | O=C(OCCCCC#Cc1ccc(C(=O)OC2CSSC2)cc1)c1ccc([N+](=O)[O-])cc1 |
| 34.6 | 26.3 | 26.3 | Not Active | 38.4 | – | – | – | – | COc1cccc(C(=O)OCCCCC#Cc2ccc(C(=O)OC3CSSC3)cc2)c1 |
| 9.41 | 4.36 | 4.68 | Not Active | 9.21 | – | – | – | – | O=C(OCCCCC#Cc1ccc(C(=O)OC2CSSC2)cc1)c1ccc(F)cc1 |
| 18.3 | 23.2 | 23.5 | Not Active | 19.3 | – | – | – | – | COc1ccccc1C(=O)OCCCCC#Cc1ccc(C(=O)OC2CSSC2)cc1 |
| 10.5 | 6.48 | 4.43 | Not Active | 8.67 | – | – | – | – | O=C(OC1CSSC1)c1ccc(C#CCCCCOC(=O)c2ccccc2F)cc1 |
| 6.64 | 4.58 | 6.55 | Not Active | 5.13 | – | – | – | – | COc1ccc(C(=O)OCCCCC#Cc2ccc(C(=O)OC3CSSC3)cc2)cc1 |
| – | 20 | 4.27 | Not Active | – | 5 | Not Active | Not Active | – | COc1ccc(C(=O)OCCCCC#Cc2ccc(C(=O)OC3CSSC3)cc2)c(OC)c1 |
| 8.91 | 9.21 | 5.18 | Not Active | 10 | – | – | – | – | O=C(OCCCCC#Cc1ccc(C(=O)OC2CSSC2)cc1)c1cccc(F)c1 |

The remaining lines, values behind:

| SMILES | IC50 ([1]; read-out: IC50) [µM] | IC50 [2] [µM] | IC50 ([3]; read-out: IC50) [µM] | IC50 [4] | IC50 ([5]; read-out: IC50) [µM] | Ratio IC50 [6] | IC50 [1] | IC50 [5] | IC50 [3] |
| --- | --- | --- | --- | --- | --- | --- | --- | --- | --- |
| O=C(OC1CSSC1)c1ccc(C#CCCOC(=O)c2cc(Br)ccc2Br)cc1 | 8.25 | 26.7 | 2.73 | Not Active | 15.7 | 10 | – | – | – |
| O=C(OC1CSSC1)c1ccc(OCCCCCCOC(=O)c2cc(Br)ccc2Br)cc1 | – | 30.8 | 8.85 | Not Active | – | – | Not Active | Not Active | – |
| O=C(OC1CSSC1)c1ccc(C#CCCCCOC(=O)c2cc(Br)ccc2Br)cc1 | 13.2 | 1.88 | 0.59 | Not Active | – | 3 | – | Not Active | – |
| O=C(OC1CSSC1)c1ccc(C#CCCCCOC(=O)c2ccccc2[N+](=O)[O-])cc1 | 11.5 | 7.83 | 9.12 | Not Active | 9.25 | – | – | – | – |
| O=C(OC1CSSC1)c1ccc(CCCCCCOC(=O)c2cc(Br)ccc2Br)cc1 | 9.69 | 17.4 | 2.68 | Not Active | 11.1 | > 6 | – | – | – |
| O=C(OC1CSSC1)c1ccc(OCCOC(=O)c2cc(Br)ccc2Br)cc1 | – | 35 | 7.26 | Not Active | – | – | Not Active | Not Active | – |
| O=C(OC1CSSC1)c1ccc(OCCCOC(=O)c2cc(Br)ccc2Br)cc1 | 10.9 | 27.6 | – | Not Active | 32.2 | – | – | – | Not Active |
